Assay results from patent US12582616B2, “Molecular targets for modulation of dissociative and associative states” (The Board of Trustees of the Leland Stanford Junior …, priority 2020, dated 2026).

How the values were obtained:
mice [1] = assay: Righting reflex assay; type: in vivo, mouse
Text: Righting Reflex Assay: Mice were held at the neck and tail, rotated to supine position on a flat surface, and quickly released. Time to right was quantified as moment of release to moment when all 4 legs touched the ground. A five second threshold was used to classify righting success (less than 5 seconds) from failure (more than 5 seconds). […] Illumination began for 30 seconds, and then the mouse was swiftly inverted onto the flat surface.

humans = conditions: human; cited from earlier work
mice [2] = assay: Open field test; type: in vivo, mouse; conditions: 5 min session, compared with saline
Text: Open Field Test: Mice were placed in an evenly illuminated 50 cm×50 cm open field test box. Mouse position was captured using a webcam and Viewer software (Biobserve).

[3] = test system: retrosplenial cortex (RSP); assay: Fiber photometry and widefield imaging of RSP, dose comparison; type: in vivo, mouse
Text: A 405 nm and 470 nm LED illumination (Thorlabs) was combined (425 nm longpass, Thorlabs DMLP425) and coupled into a fiber optic patch cord (400 μm diameter, 0.48 NA, Doric Lenses) using a longpass dichroic (505 nm, Thorlabs DMLP505) and a fixed-focused coupler/collimator with a standard FC connector (F240FC-A, NA 0.51, f=7.9 mm)^47,48. Each illumination channel was frequency modulated using the sync output from a lock-in amplifier (SR810 DSP, Stanford Research Systems). GCaMP fluorescence was collected through the same patchcord and delivered through a bandpass emission filter (Semrock, FF01-520/35) onto a NewFocus 2151 femtowatt silicon photoreceiver (Newport, DC Low mode). […]
Analysis was performed using custom MATLAB (MathWorks) scripts. […] For quantification, activity traces were extracted from points centered in five cortical regions (visual, somatosensory, parietal, motor, retrosplenial) on the left hemisphere of the brain. […]
Each trace (corresponding to either a fiber photometry signal, a cellular two-photon signal, a widefield regional centroid, a widefield pixel, an sEEG trace, or a smoothed spike rate Neuropixels trace) was z-scored, and the power spectral density (PSD) was then estimated using Welch's method (pwelch( ) in Matlab), with a window size of 10*fs (15*fs for human sEEG) where fs is the sampling rate of the signal. […]

mouse = conditions: cited from earlier work

CNC1(c2ccccc2Cl)CCCCC1=O (centres unmarked) [ketamine]
consciousness (spontaneous ambulation, response to external stimuli) (mice [1]; ketamine >=25 mg/kg, subanesthetic): consciousness was maintained
righting of postural inversion (mice [1]; ketamine, knockout and wild-type mice): all mice successfully-righted postural inversion
dose at which humans consistently report potent dissociation (humans): 2 to 3 mg/kg
typical dose for anti-depressant effects (humans): 0.3 to 1 mg/kg
open-field locomotion velocity (mice [2]): decreased velocity
1-3 Hz RSP oscillation ([3]; ketamine 13 mg/kg, listed as Ketamine): not 13 mg/kg
1-3 Hz RSP oscillation ([3]; ketamine 25 mg/kg): rhythm at 25 mg/kg
typical dose for anti-depressant effects (mouse): 3 to 10 mg/kg
